Measured values as given in PMC3674182 (European journal of medicinal chemistry, 2013).
Converted amounts (≈) assume the structure as drawn.

Tests used:
[1] = test system: methicillin-resistant S. aureus (MRSA, ATCC 33591); assay: in vitro antibacterial activity; type: cell-based; details: Staphylococcus aureus, ATCC33591|MRSA, read-out: MIC, MRS
[2] = test system: intracellular amastigote form of Leishmania; details: cited from earlier work
[3] = test system: Leishmania donovani axenic amastigotes; assay: in vitro antileishmanial activity, axenic amastigotes; type: cell-based; details: 72 h, read-out: L. donovani IC50, Amastigotes

Molecule | activity against the intracellular amastigote form of Leishmania [2] | further results
Oc1ccc(C(c2c[nH]c3ccc(I)cc23)c2c[nH]c3ccc(I)cc23)cc1 [8a, 5,5′-Diiodo-3,3′-(4-hydroxyphenyl-methanediyl)-bisindole] | – | MIC [1]: 2 to 4.3 µM (≈ 1.18 to 2.54 µg/mL)
conodurine | strong activity | –
N=C(N)c1ccc(OCCCCCOc2ccc(C(=N)N)cc2)cc1 [Pentamidine] | – | IC50 [3]: 2.9 µM
N-demethylconodurine | strong activity | –
